Results taken from patent publication US4863916A, “Substituted 6-hydroxymethyl-carbapenem antibiotics” (Bayer Aktiengesellschaft, priority 1986, dated 1989).

Columns and labels:
Experiment in all cases: Antibacterial action, minimum inhibitory concentration (MIC), agar method on Iso-sensitest agar
Type in all cases: cell-based
Staph. 24455 = test system: Staph. 24455
Text: (§1) The agar solution method was used for determining the antibacterial action, an Iso-sensitest agar being used and the minimum inhibitory concentration (MIC) of the sample being expressed in μg/ml of the nutrient medium (Table).

Staph. 133 = test system: Staph. 133
Text: as §1

Staph. E 25185 = test system: Staph. E 25185
Text: as §1

COC(=O)[C@@H](O)[C@H]1C(=O)N2C(C(=O)O)=C(Sc3ccncc3)C[C@H]12 [Example 14, Sodium (5R,6S)-6-[(1S)-1-hydroxy-1-methoxycarbonyl]methyl-7-oxo-3-(4-pyridinylthio)-1-azabicyclo[3.2.0]hept-2encarboxylate] was tested, and the MIC (Staph. 24455) was 0.5 µg/mL, the MIC (Staph. 133) was 0.5 µg/mL and the MIC (Staph. E 25185) was 1 µg/mL.
